Measurements: US20150017717A1, “CULTURE MEDIUM FOR EUKARYOTIC CELLS” (Friesland Brands B.V., priority 2012, published 2015)

Legend:
[1] = system: IgG expressing CHO cell line (CHO-2: ATCC CRL 11397, producing IgG4); assay: Specific IgG production of CHO cells in supplemented chemically defined medium (sandwich ELISA / AUC); format: cell-based, Chinese hamster; settings: ratio of cumulative IgG production (mg/ml) and AUC at day 11
Procedure: (§1) The cell culture assay was carried out in commercially available IS CHO-CD medium (Irvine Scientific, Cat. No. 91119). To this media, L-Glutamine (2 mM), pluronic acid, hypoxanthine (100 μM) and thymidine (15 μM) were added. Penicillin and streptomycin were added to prevent any bacterial growth during the growth assay. The media was supplemented with methyl-L-3-phenyl lactate or mucic acid, both purchased from Sigma Aldrich, Germany, in varying concentrations (1×10^−3 to 1×10^−1% (w/v), see Table 2). The supplemented medium was mixed with a vortex mixture, filtered using a 0.22 μm filter and subsequently used in a growth assay.
(§2) An IgG expressing CHO cell line was used (CHO-2: ATCC CRL 11397, producing IgG4). The cell lines were grown in the adherent conditions for a few passages and once confluent, they were transferred to animal-free conditions in the supplemented media described in Example 2.
(§3) To measure growth and production curves, Chinese hamster ovary (CHO) cells were grown in suspension culture in baffled flasks. 20×10^6 cells were transferred in 25 ml media to the baffled flasks. Chemically defined media with and without added alpha-hydroxy acid derivatives were tested. No fresh media was added during the growth assay. Cells were counted using the CEDEX HiRes cell counter (Innovatis, Germany). The cell counts were used to calculate the area under the growth curve and represented as dimensionless area under curve (AUC) values as described in detail in Ling, C. X, Huang, J. and Zhang, H. (2003), International joint conferences on artificial intelligence, pp. 329-341. The supernatant samples were taken every alternate days for the IgG production measurements. IgG production was measured using sandwich ELISA method. The specific IgG production was calculated by taking the ratio of cumulative IgG production (in mg/ml) and AUC measured at day 11 of the growth assay. The cells were visually inspected using a phase contrast microscope (Zeiss Axiovert 25, 400× magnification). […] Only single cells were observed and no aggregation of cells was seen. The cell shape was also positively affected. […] This was in contrast with the observation that a lot of cell aggregates were present in CHO cell cultures grown in chemically defined medium without alpha-hydroxy acid derivatives.

[2] = system: cell culture (antibody production); assay: Linear regression of antibody production in cell culture assays against relative concentration of components in plant protein hydrolysates; format: cell-based; settings: linear regression over plant protein hydrolysates, MS Excel SLOPE function
Procedure: Commercial plant protein hydrolysates like SE50MAF-UF, WGE80M-UF, CNE80M-UF, PCE80B obtained from FrieslandCampina Domo, USA were analysed by Liquid chromatography/Mass Spectrometry (LC/MS, LC/MS2) using a Waters Acquity UPLC and a Thermo-Finnigan LTQ mass spectrometer, which consists of an electrospray ionization (ESI) source and linear ion-trap (LIT) mass analyzer. The sample extract was split into two aliquots, dried, then reconstituted in acidic or basic LC-compatible solvents. One aliquot was analyzed using acidic positive ion optimized conditions and the other using basic negative ion optimized conditions in two independent injections using separate dedicated columns. Extracts reconstituted in acidic conditions were gradient eluted using water and methanol both containing 0.1% formic acid, while the basic extracts, which also use water/methanol, contain 6.5 mM ammonium bicarbonate. The MS analysis alternated between MS and data-dependent MS2 scans using dynamic exclusion. Biochemicals were identified by comparison to metabolomic library entries of purified standards or recurrent unknown entities. The combination of chromato-graphic properties and mass spectra gives an indication of a match to the specific compound or an isobaric entity. Thus, an overview of the biochemical components and their relative concentration present in plant protein hydrolysates was generated. Furthermore, all the hydrolysates were tested in the cell culture assays for cell growth and antibody production. […] Using the SLOPE function of Microsoft Excel 2003, the correlation between antibody production and relative concentration of the components was calculated, the results of which are presented in Table 1 below. The higher the positive slope, the higher the importance of a biochemical component in the cell culture. p-values, also calculated using MS Excel's correlation regression function, represent the significance of the values, with the lower the p-value (all between 0 and 1), the more significant the measured value.

[3] = system: IgG expressing CHO cell line (CHO-2: ATCC CRL 11397, producing IgG4); assay: Cell growth of CHO cells in suspension culture (area under growth curve, CEDEX cell counts); format: cell-based, Chinese hamster; settings: dimensionless AUC
Procedure: as §1, §2, §3

O=C(O)[C@@H](O)[C@H](O)[C@H](O)[C@@H](O)C(=O)O [Mucic acid, mucic acid]
Specific IgG production after 11 days ([1]; 1 × 10^−1 % w/v added): 84.61 | Specific IgG production after 11 days ([1]; 1 × 10^−2 % w/v added): 90.27 | Specific IgG production after 11 days ([1]; 1 × 10^−3 % w/v added): 90.85 | SLOPE (correlation of antibody production and relative concentration of the component) [2]: 2108.11 | Cell growth (area under curve) after 14 days ([3]; 1 × 10^−1 % w/v added): 48.29 | Cell growth (area under curve) after 14 days ([3]; 1 × 10^−2 % w/v added): 49.64 | Cell growth (area under curve) after 14 days ([3]; 1 × 10^−3 % w/v added): 49.88

CC(C)CC(O)C(=O)O (stereo not drawn) [alpha-hydroxyisocaproic acid]
SLOPE (correlation of antibody production and relative concentration of the component) [2]: 1654.23

COC(=O)[C@@H](O)Cc1ccccc1 [Methyl-L-3-phenyl lactate, methyl-L-3-phenyl lactate]
Specific IgG production after 11 days ([1]; 1 × 10^−1 % w/v added): 77.80 | Cell growth (area under curve) after 14 days ([3]; 1 × 10^−1 % w/v added): 46.70

CC(C)C(O)C(=O)O (stereo not drawn) [alpha-hydroxyisovaleric acid]
SLOPE (correlation of antibody production and relative concentration of the component) [2]: 2830.96
